# Assay results taken from US20090062401A1, “DECALINE-DERIVED COMPOUNDS AS […] ACTIVE AGENTS” (UNIVERSITAT DORTMUND, priority 2004, published 2009).
# Biological target: VHR (Homo sapiens, UniProt P51452)
# Assay: VHR phosphatase inhibition, general phosphatase assay using para-nitrophenylphosphate
# Type: biochemical
# Conditions: read-out: IC50 Target VHR
# Text: (§1) Assays protocols for the other enzymes mentioned herein (MtPTPA, PP1, VHR, PTP1B) are disclosed in Schweizer R A S, Atanasov, G A, Frey B M, and Odermatt A, Mol. Cell. Endocrinol. 2003, 212, 41-49 and Barratte, B., Meijer L., Galaktionov K. & Beach D, Anticancer Res. 1992, 12, 873-880. For determination of the phosphatase activity, a general phosphatase assay using para-nitrophenylphosphate was applied.
# Chain of VHR (P51452 whole entry, species assumed): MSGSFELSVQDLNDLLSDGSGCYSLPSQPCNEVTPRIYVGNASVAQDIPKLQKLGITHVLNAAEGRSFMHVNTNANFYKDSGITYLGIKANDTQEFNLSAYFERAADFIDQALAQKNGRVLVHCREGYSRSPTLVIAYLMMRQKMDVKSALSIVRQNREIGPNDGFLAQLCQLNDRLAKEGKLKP
row,SMILES,IC50 [µM]
1,"CC1=C2CCC[C@H](O)[C@@]2(C)C/C(=C\c2ccc(Cl)cc2)C1=O [Compound 7, (3E,4aS,5S)-3-(4-Chlorobenzyliden)-4,4a,5,6,7,8-hexahydro-5-hydroxy-1,4a-dimethylnaphthalen-2(3H)-one]",10 to 50
2,"CC1=C2CCC[C@H](O)[C@@]2(C)C/C(=C\c2ccccc2)C1=O [Compound 18, (3E,4aS,5S)-3-benzylidene-4,4a,5,6,7,8-hexahydro-5-hydroxy-1,4a-dimethylnaphthalen-2(3H)-one]",10 to 50
3,"CC1=C2CCC[C@H](O)[C@@]2(C)C/C(=C\c2cc(C)cs2)C1=O [Compound 19, (3E,4aS,5S)-4,4a,5,6,7,8-Hexahydro-5-hydroxy-1,4a-dimethyl-3-[(4-methylthiophen-2-yl)methylen]naphthalen-2(3H)-one]",< 10
4,"CCCCCCCCc1ccc(/C=C2\C[C@@]3(C)C(=C(C)C2=O)CCC[C@@H]3O)c(C)c1 [Compound 20, (3E,4aS,5S)-3-(2-Methyl-4-octyl-benzyliden)-4,4a,5,6,7,8-hexahydro-5-hydroxy-1,4a-dimethyl-naphthalen-2(3H)-one]",10 to 50
5,CC1=C2CCC[C@H](O)[C@@]2(C)C/C(=C\c2ccoc2)C1=O [Compound 62],10 to 50
6,"CCc1ccc(/C=C2\C[C@@]3(C)C(CCC[C@@H]3O)C(C)C2=O)c(C)c1 (stereo partly drawn) [Compound 89, (E,4aS,5S)-3-(4-Ethyl-2-methylbenzyliden)-octahydro-5-hydroxy-1,4a-dimethylnaphthalen-2(1H)-one]",10 to 50
7,"CC1=C2CCC[C@H](O)[C@@]2(C)C/C(=C\c2ccc(O)c(O)c2O)C1=O [Compound 107, (3E,4aS,5S)-3-(2,3,4-Trihydroxybenzyliden)-4,4a,5,6,7,8-hexahydro-5-hydroxy-1,4a-dimethylnaphthalen-2(3H)-one]",10 to 50
8,"CC1=C2CCC[C@H](O)[C@@]2(C)C/C(=C\c2c[nH]c3ccccc23)C1=O [Compound 115, (3E,4aS,5S)-3-[(1H-Indol-3-yl)methylen]-4,4a,5,6,7,8-hexahydro-5-hydroxy-1,4a-dimethylnaphthalen-2(3H)-one]",10 to 50
9,"CCCCCCC#Cc1ccc(/C=C2\C[C@@]3(Cc4ccccc4)C(=C(C)C2=O)CCC[C@@H]3O)cc1 [Compound 126, (3E,4aS,5S)-3-[4-(Oct-1-inyl)benzyliden]-4a-benzyl-4,4a,5,6,7,8-hexahydro-5-hydroxy-1-methylnaphthalen-2(3H)-one]",10 to 50
10,"C[C@]12C/C(=C\c3ccc(C#Cc4ccccc4)cc3)C(=O)C=C1CCC[C@@H]2O [Compound 136, (3E,4aS,5S)-3-[4-(2-Phenylethinyl)benzyliden]-4,4a,5,6,7,8-hexahydro-5-hydroxy-4a-methylnaphthalen-2(3H)-one]",10 to 50
11,"COc1cc(CC2(C)C(NC3CCCCC3)CC[C@@]3(C)C2CCC[C@@H]3O)cc(OC)c1 (stereo partly drawn) [Compound 146, (1S,8aS)-5-(3,5-Dimethoxybenzyl)-6-(cyclohexylamino)-decahydro-5,8a-dimethylnaphthalen-1-ol]",10 to 50
12,"CCOC(=O)CC1(C)C(=O)CC[C@@]2(C)C1CCC[C@@H]2O (stereo partly drawn) [Compound 153, Ethyl-2-[(4aS,5S)-decahydro-5-hydroxy-1,4a-dimethyl-2-oxonaphthalen-1-yl]acetat]",10 to 50
13,"CC1C(=O)/C(=C/c2ccccc2OCc2ccccc2)C[C@@]2(C)C1CCC[C@@H]2O (stereo partly drawn) [Compound 190, (E,4aS,5S)-3-[2-(Benzyloxy)-benzyliden]-octahydro-5-hydroxy-1,4a-dimethylnaphthalen-2(1H)-one]",10 to 50
14,"C[C@H]1/C(=C\c2ccccc2)C(=O)C=C2CCC[C@H](O)[C@]21C [Compound 203, (3E,4R,4aS,5S)-3-Benzyliden-4,4a,5,6,7,8-hexahydro-5-hydroxy-4,4a-dimethylnaphthalen-2(3H)-one]",10 to 50
15,"CC1=C2CCC[C@H](O)[C@@]2(C)C/C(=C\c2c(C)c(C)c(C)c(C)c2C)C1=O [Compound 215, (3E,4aS,5S)-3-(2,3,4,5,6-Pentamethylbenzyliden)-4,4a,5,6,7,8-hexahydro-5-hydroxy-1,4a-dimethylnaphthalen-2(3H)-one]",10 to 50
16,"C[C@]12C/C(=C\c3ccccc3OCc3ccccc3)C(=O)C=C1CCC[C@@H]2O [Compound 223, (3E,4aS,5S)-3-[2-(Benzyloxy)benzyliden]-4,4a,5,6,7,8-hexahydro-5-hydroxy-4a-methylnaphthalen-2(3H)-one]",10 to 50
17,"CCCC(C)/C=C1\C[C@@]2(C)C(=CC1=O)CCC[C@@H]2O (stereo partly drawn) [Compound 225, (3E,4aS,5S)-4,4a,5,6,7,8-Hexahydro-5-hydroxy-4a-methyl-3-(2-methylpentyliden)naphthalen-2(3H)-one]",10 to 50
18,C=CC[C@@]12C(=CC(=O)/C(=C/C3=CC[C@@H](C(=C)C)CC3)[C@@H]1C)CCC[C@@H]2O [Compound 241],10 to 50
19,"C=CC[C@@]12C(=CC(=O)/C(=C/c3ccc(C)o3)[C@@H]1C)CCC[C@@H]2O [Compound 242, (3E,4R,4aS,5S)-4a-Allyl-4,4a,5,6,7,8-hexahydro-5-hydroxy-4-methyl-3-[(5-methylfuran-2-yl)methylen]naphthalen-2(3H)-on]",10 to 50
20,"C[C@@H]1C(O)CC[C@]2(C)C(=O)/C(=C/c3ccco3)CCC12 (stereo partly drawn) [Compound 266, (E,5S,8aS)-2-[(Furan-2-yl)methylen]-octahydro-6-hydroxy-5,8a-dimethylnaphthalen-1(2H)-one]",10 to 50
21,"COc1cc(OC)c(OC)cc1/C=C1\CCC2[C@H](C)C(O)CC[C@]2(C)C1=O (stereo partly drawn) [Compound 267, (E,5S,8aS)-2-(2,4,5-Trimethoxy-benzyliden)-octahydro-6-hydroxy-5,8a-dimethylnaphthalen-1(2H)-one]",10 to 50
22,"C=C(C)[C@H]1CC=C(/C=C2\C[C@@]3(C)C(=CC2=O)CCC[C@@H]3O)CC1 [Compound 286, (3E,4aS,5S)-4,4a,5,6,7,8-Hexahydro-5-hydroxy-4a-methyl-3-{[(R)-4-(prop-1-en-2-yl)cyclohex-1-enyl]methylen}naphthalen-2(3H)-one]",10 to 50
23,"CC1(CCc2ccccc2)C(=O)/C(=C/c2ccc(I)cc2)CC2(C)C1CCCC21OCCO1 (stereo not drawn) [Compound 402, (7′E)-7′-(4-iodo-benzylidene)-5′,8a′-dimethylhexahydro-5′-(2-phenylethyl)-2′H-spiro[1,3-dioxolane-2,1′-naphthalen]-6′(5′H)-one]",10 to 50
24,"CC1(Cc2ccccc2[N+](=O)[O-])C(=O)CC[C@@]2(C)C1CCC[C@@H]2O (stereo partly drawn) [Compound 405, (4aS,5S)-5-Hydroxy-1,4a-dimethyl-1-(2-nitro-benzyl)-octahydro-naphthalen-2-one]",10 to 50
25,"COc1cc(OC)c(/C=C2\C[C@]3(C)C(=O)CCCC3=C(C)C2=O)c(OC)c1 [Compound 408, (3E,4aS)-5,8a-Dimethyl-7-(2,4,6-trimethoxy-benzylidene)-3,4,8,8a-tetrahydro-2H,7H-naphthalen-1,6-dione]",10 to 50

# Biological target: T1, PTP1B (Homo sapiens, UniProt P18031)
# T1 sequence (P18031 1-435): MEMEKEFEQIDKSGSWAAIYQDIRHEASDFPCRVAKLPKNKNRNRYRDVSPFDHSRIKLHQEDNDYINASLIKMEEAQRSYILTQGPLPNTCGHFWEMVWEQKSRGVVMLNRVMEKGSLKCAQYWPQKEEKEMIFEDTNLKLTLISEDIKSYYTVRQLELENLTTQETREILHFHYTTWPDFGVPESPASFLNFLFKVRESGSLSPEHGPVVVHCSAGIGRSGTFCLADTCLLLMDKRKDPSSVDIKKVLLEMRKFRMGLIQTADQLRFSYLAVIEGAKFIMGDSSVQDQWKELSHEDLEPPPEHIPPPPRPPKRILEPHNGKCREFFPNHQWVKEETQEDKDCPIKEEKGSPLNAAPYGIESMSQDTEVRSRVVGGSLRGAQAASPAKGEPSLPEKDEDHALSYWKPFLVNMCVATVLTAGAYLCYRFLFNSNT
# Assay: PTP1B phosphatase inhibition, general phosphatase assay using para-nitrophenylphosphate
# Type: biochemical
# Conditions: read-out: IC50 Target PTP1B
# Text: as §1
row,SMILES,IC50 [µM]
1,"CC1=C2CCC[C@H](O)[C@@]2(C)C/C(=C\c2ccco2)C1=O [Compound 34, (3E,4aS,5S)-3-[(Furan-2-yl)methylen]-4,4a,5,6,7,8-hexahydro-5-hydroxy-1,4a-dimethylnaphthalen-2(3H)-one]",10 to 50
2,"COC#Cc1ccc(/C=C2\C[C@@]3(C)C(=C(C)C2=O)CCC[C@@H]3O)cc1 [Compound 37, (3E,4aS,5S)-3-[4-(2-Methoxy-ethinyl)benzyliden]-4,4a,5,6,7,8-hexahydro-5-hydroxy-1,4a-dimethylnaphthalen-2(3H)-one]",10 to 50
3,"CC1=C2CCC[C@H](O)[C@@]2(C)C/C(=C\c2ccc(C#Cc3ccc(C)cc3)cc2)C1=O [Compound 41, (3E,4aS,5S)-3-[4-(2-p-Tolylethinyl)benzyliden]-4,4a,5,6,7,8-hexahydro-5-hydroxy-1,4a-dimethyl-naphthalen-2(3H)-one]",10 to 50
4,"CC1=C2CCC[C@H](O)[C@@]2(C)C/C(=C\CCc2ccco2)C1=O [Compound 59, (3E,4aS,5S)-3-[3-(Furan-2-yl)propyliden]-4,4a,5,6,7,8-hexahydro-5-hydroxy-1,4a-dimethylnaphthalen-2(3H)-one]",10 to 50
5,"CC1=C2CCC[C@H](O)[C@@]2(C)C/C(=C\c2c(C)c(C)c(C)c(C)c2C)C1=O [Compound 61, (3E,4aS,5S)-3-(2,3,4,5,6-Pentamethylbenzyliden)-4,4a,5,6,7,8-hexahydro-5-hydroxy-1,4a-dimethylnaphthalen-2(3H)-one]",10 to 50
6,"CC1=C2CCC[C@H](O)[C@@]2(C)C/C(=C\c2ccc(OCc3ccccc3)cc2)C1=O [Compound 66, (3E,4aS,5S)-3-[4-(Benzyloxy)benzyliden]-4,4a,5,6,7,8-hexahydro-5-hydroxy-1,4a-dimethylnaphthalen-2(3H)-one]",10 to 50
7,"CCCCCCCCCC#Cc1ccc(/C=C2\C[C@@]3(C)C(=C(C)C2=O)CCC[C@@H]3O)cc1 [Compound 90, (3E,4aS,5S)-3-[4-(Undec-1-inyl)benzyliden]-4,4a,5,6,7,8-hexahydro-5-hydroxy-1,4a-dimethylnaphthalen-2(3H)-one]",10 to 50
8,"C=CC[C@@]12C(=CC(=O)/C(=C/CC)[C@@H]1C)CCC[C@@H]2O [Compound 282, (3E,4R,4aS,5S)-4a-Allyl-4,4a,5,6,7,8-hexahydro-5-hydroxy-4-methyl-3-propylidennaphthalen-2(3H)-one]",10 to 50
